From publication PMC3496398 (Molecular pharmaceutics, 2010)
Entries after “also recorded” stand apart in the source; their conditions may differ.

What was measured:
Caco-2 cell monolayers = assay: Caco-2 cell monolayer transport assay; assay type: in vitro ADME; settings: apical pH 6.5 to basolateral pH 7.4, 0 mM HNAP
rat jejunum = assay: Rat jejunal single-pass perfusion assay; assay type: in vivo; settings: for rat jejunal Peff in the absence of HNAP: drug perfused alone, 0 mM HNAP
Octanol-buffer = settings: Log PAB versus cLog P of free drug
[1] = in humans; cited from earlier work
[2] = rat, in vivo; cited from earlier work
[3] = system: influenza virus neuraminidase; settings: influenza virus neuraminidase inhibitor; cited from earlier work

Compound: CCOC(=O)C1=C[C@@H](OC(CC)CC)[C@H](NC(C)=O)[C@@H](NC(=N)N)C1 [GO, (3R,4R,5S)-ethyl-4-acetamido-5-guanidino-3-(pentan-3-yloxy)cyclohex-1-enecarboxylate]
- Caco-2 Papp in the absence of HNAP (Caco-2 cell monolayers): no detectable transport
- change of rat jejunal Peff on co-perfusion with HNAP (rat jejunum; co-perfusion with 12 mM HNAP versus drug alone): failed to increase; also recorded: no significant increase
- rat jejunal Peff in the absence of HNAP (rat jejunum): No effective permeability; also recorded: Essentially zero
- increase of log P by ion-pairing with HNAP compared to the free drug (Octanol-buffer): 3.7 units

Compound: CCOC(=O)C1=C[C@@H](OC(CC)CC)[C@H](NC(C)=O)[C@@H](N)C1 [OSV, oseltamivir]
- oral absorption [1]: 60–80%

Compound: CCCCCCCOC(=O)C1=C[C@H](NC(=N)N)[C@@H](NC(C)=O)[C@H]([C@H](O)[C@H](O)CO)O1 [ZHE, 5-Acetamido-2,6-anhydro-4-(guanidino)-3,4,5-trideoxy-D-glycero-D-galcto-non-2-enonic acid heptyl ester]
- Caco-2 Papp in the absence of HNAP (Caco-2 cell monolayers): no detectable transport
- rat jejunal Peff at 4 mM HNAP (rat jejunum; 4 mM HNAP): 21 ×10⁻⁶ cm/s
- rat jejunal Peff at 10 mM HNAP (rat jejunum; 10 mM HNAP): 40 ×10⁻⁶ cm/s
- rat jejunal Peff in the absence of HNAP (rat jejunum): essentially zero
- increase of log P by ion-pairing with HNAP compared to the free drug (Octanol-buffer): 1.2 units

Compound: CC(=O)N[C@H]1[C@H]([C@H](O)[C@H](O)CO)OC(C(=O)O)=C[C@@H]1N=C(N)N [ZNV, Zanamivir]
- percent of oral dose absorbed (%F) [2]: 4%

Compound: CCC(CC)O[C@@H]1C=C(C(=O)O)C[C@H](NC(=N)N)[C@H]1NC(C)=O [active carboxylate of GO]
- IC50 [3]: 0.9 nM
